Data as given in patent US20070238731A1, “Dna-Pk Inhibitors” (KUDOS PHARMACEUTICALS LIMITED, priority 2004, published 2007).

Key:
[1] = system: HeLa cells; test: Survival Enhancement Ratio (clonogenic survival assay after 2 Gray irradiation); format: cell-based; conditions: inhibitor 100 nM
Protocol: Gray irradiation was calculated from the formula: [formula] The degree of cell killing was monitored by a standard clonogenic survival assay. […] Four hours later, compound or vehicle control was added to the cells. […] The cells were then incubated for a further 16 hours before the media was replaced with fresh media in the absence of DNA-PK inhibitor. After 8 days, colonies formed were fixed and stained with Giemsa (Sigma, Poole, UK) and scored using an automated colony counter (Oxford Optronics Ltd, Oxford, UK). The data was calculated as described above.

[2] = system: cells; conditions: cited from earlier work
[3] = molecular target: DNA-PK (Homo sapiens, UniProt P78527); conditions: read-out: IC50 towards DNA-PK; cited from earlier work
[4] = molecular target: PI 3-kinase; conditions: stated to be the same as for DNA-PK; cited from earlier work

O=C(CCNCC1CCCO1)Nc1ccc(-c2cccc3c(=O)cc(N4CCOCC4)oc23)c2sc3ccccc3c12 (centres unmarked) [Compound 53]
melting point: 148 °C

O=c1cc(N2CCOCC2)oc2c(-c3cccc4c3sc3ccccc34)cccc12
Survival Enhancement Ratio (SER) [1]: 1.3

O=c1cc(N2CCOCC2)oc2c(-c3ccccc3)cccc12 [LY294002]
sensitisation of cells to the effects of IR [2]: weakly sensitise cells to the effects of IR
IC50 [3]: ~1 µM
IC50 [4]: ~1 µM
